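Dose response: 5 concentrations. Exposure: 48 h. Format: 96-well plates. Endpoint: linear interpolation; highest concentration if not reached. Abbreviation: GI50, concentration required for 50% inhibition of growth. The concentration for full growth arrest is given as TGI.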
Tests used:
Assay in all cases: growth of human tumour cells (NCI), 48 h
786-0 renal = system: 786-0 renal
A498 renal = system: A498 renal
A549 NSCLC = system: A549 NSCLC
ACHN renal = system: ACHN renal
BT-549 breast = system: BT-549 breast
CAKI-1 renal = system: CAKI-1 renal
CCRF-CEM leukemia = system: CCRF-CEM leukemia
COLO 205 colon = system: COLO 205 colon
DU-145 prostate = system: DU-145 prostate
EKVX NSCLC = system: EKVX NSCLC
HCC-2998 colon = system: HCC-2998 colon
HCT-116 colon = system: HCT-116 colon
HCT-15 colon = system: HCT-15 colon
HL-60(TB) leukemia = system: HL-60(TB) leukemia
HOP-62 NSCLC = system: HOP-62 NSCLC
HOP-92 NSCLC = system: HOP-92 NSCLC
HS 578T breast = system: HS 578T breast
HT29 colon = system: HT29 colon
IGROV1 ovarian = system: IGROV1 ovarian
K-562 leukemia = system: K-562 leukemia
KM12 colon = system: KM12 colon
LOX IMVI melanoma = system: LOX IMVI melanoma
M14 melanoma = system: M14 melanoma
MALME-3M melanoma = system: MALME-3M melanoma
MCF7 breast = system: MCF7 breast
MDA-MB-231 breast = system: MDA-MB-231 breast
MDA-MB-435 = system: MDA-MB-435
MDA-MB-468 breast = system: MDA-MB-468 breast
MOLT-4 leukemia = system: MOLT-4 leukemia
NCI-H226 lung = system: NCI-H226 lung
NCI-H23 lung = system: NCI-H23 lung
NCI-H460 lung = system: NCI-H460 lung
NCI-H522 lung = system: NCI-H522 lung
NCI/ADR-RES ovarian = system: NCI/ADR-RES ovarian
OVCAR-3 ovarian = system: OVCAR-3 ovarian
OVCAR-4 ovarian = system: OVCAR-4 ovarian
OVCAR-5 ovarian = system: OVCAR-5 ovarian
OVCAR-8 ovarian = system: OVCAR-8 ovarian
PC-3 prostate = system: PC-3 prostate
RPMI-8226 leukemia = system: RPMI-8226 leukemia
RXF 393 renal = system: RXF 393 renal
SF-268 CNS = system: SF-268 CNS
SF-295 CNS = system: SF-295 CNS
SF-539 CNS = system: SF-539 CNS
SK-MEL-2 melanoma = system: SK-MEL-2 melanoma
SK-MEL-28 melanoma = system: SK-MEL-28 melanoma
SK-MEL-5 melanoma = system: SK-MEL-5 melanoma
SK-OV-3 ovarian = system: SK-OV-3 ovarian
SN12C renal = system: SN12C renal
SNB-19 CNS = system: SNB-19 CNS
SNB-75 CNS = system: SNB-75 CNS
SR leukemia = system: SR leukemia
SW-620 colon = system: SW-620 colon
T-47D breast = system: T-47D breast
TK-10 renal = system: TK-10 renal
U251 CNS = system: U251 CNS
UACC-257 melanoma = system: UACC-257 melanoma
UACC-62 melanoma = system: UACC-62 melanoma
UO-31 renal = system: UO-31 renal

`CN1CCN(c2ccc3c(c2)nc(NNC(=O)c2cnccn2)c2cccn23)CC1` was tested, and the GI50 (786-0 renal) was 401 nM, the TGI (786-0 renal) was 2400 nM and the GI50 (A498 renal) was 1770 nM. For the same compound, the TGI (A498 renal) was 3320 nM, the GI50 (A549 NSCLC) was 768 nM and the TGI (A549 NSCLC) was 12100 nM. The GI50 (ACHN renal) was 256 nM, the TGI (ACHN renal) was 1740 nM and the GI50 (BT-549 breast) was 849 nM. It also gave a TGI (BT-549 breast) of 13400 nM, a GI50 (CAKI-1 renal) of 463 nM and a TGI (CAKI-1 renal) of 5270 nM. It also gave a GI50 (CCRF-CEM leukemia) of 182 nM, a TGI (CCRF-CEM leukemia) of 1980 nM and a GI50 (COLO 205 colon) of 445 nM. The TGI (COLO 205 colon) was 9940 nM, the GI50 (DU-145 prostate) was 912 nM and the TGI (DU-145 prostate) was 8580 nM. It also gave a GI50 (EKVX NSCLC) of 277 nM, a TGI (EKVX NSCLC) of 3470 nM and a GI50 (HCC-2998 colon) of 453 nM. The TGI (HCC-2998 colon) was 5800 nM, the GI50 (HCT-116 colon) was 259 nM and the TGI (HCT-116 colon) was 5610 nM. For the same compound, the GI50 (HCT-15 colon) was 109 nM, the TGI (HCT-15 colon) was 1790 nM and the GI50 (HL-60(TB) leukemia) was 175 nM. It also gave a TGI (HL-60(TB) leukemia) of 1650 nM, a GI50 (HOP-62 NSCLC) of 361 nM and a TGI (HOP-62 NSCLC) of 11300 nM. The GI50 (HOP-92 NSCLC) was 564 nM, the TGI (HOP-92 NSCLC) was 5540 nM and the GI50 (HS 578T breast) was 3600 nM. It also gave a TGI (HS 578T breast) of 70300 nM, a GI50 (HT29 colon) of 505 nM and a TGI (HT29 colon) of 4560 nM. The GI50 (IGROV1 ovarian) was 413 nM, the TGI (IGROV1 ovarian) was 10700 nM and the GI50 (K-562 leukemia) was 631 nM. For the same compound, the TGI (K-562 leukemia) was 11600 nM, the GI50 (KM12 colon) was 359 nM and the TGI (KM12 colon) was 14900 nM. The GI50 (LOX IMVI melanoma) was 203 nM, the TGI (LOX IMVI melanoma) was 6250 nM and the GI50 (M14 melanoma) was 517 nM. It also gave a TGI (M14 melanoma) of 3870 nM, a GI50 (MALME-3M melanoma) of 1620 nM and a TGI (MALME-3M melanoma) of 6990 nM. For the same compound, the GI50 (MCF7 breast) was 697 nM, the TGI (MCF7 breast) was 7500 nM and the GI50 (MDA-MB-231 breast) was 607 nM. It also gave a TGI (MDA-MB-231 breast) of 6950 nM, a GI50 (MDA-MB-435) of 1960 nM and a TGI (MDA-MB-435) of 18400 nM. The GI50 (MDA-MB-468 breast) was 324 nM, the TGI (MDA-MB-468 breast) was 2370 nM and the GI50 (MOLT-4 leukemia) was 244 nM. The GI50 (NCI-H226 lung) was 801 nM, the TGI (NCI-H226 lung) was 3120 nM and the GI50 (NCI-H23 lung) was 801 nM. For the same compound, the TGI (NCI-H23 lung) was 12300 nM, the GI50 (NCI-H460 lung) was 229 nM and the TGI (NCI-H460 lung) was 4720 nM. The GI50 (NCI-H522 lung) was 944 nM, the TGI (NCI-H522 lung) was 6690 nM and the GI50 (NCI/ADR-RES ovarian) was 829 nM. It also gave a TGI (NCI/ADR-RES ovarian) of 2970 nM, a GI50 (OVCAR-3 ovarian) of 406 nM and a TGI (OVCAR-3 ovarian) of 5840 nM. It also gave a GI50 (OVCAR-4 ovarian) of 605 nM, a TGI (OVCAR-4 ovarian) of 12900 nM and a GI50 (OVCAR-5 ovarian) of 1180 nM. The TGI (OVCAR-5 ovarian) was 12100 nM, the GI50 (OVCAR-8 ovarian) was 383 nM and the TGI (OVCAR-8 ovarian) was 7010 nM. It also gave a GI50 (PC-3 prostate) of 386 nM, a TGI (PC-3 prostate) of 8510 nM and a GI50 (RPMI-8226 leukemia) of 756 nM. It also gave a TGI (RPMI-8226 leukemia) of 12700 nM, a GI50 (RXF 393 renal) of 1060 nM and a TGI (RXF 393 renal) of 3350 nM. For the same compound, the GI50 (SF-268 CNS) was 479 nM, the TGI (SF-268 CNS) was 13200 nM and the GI50 (SF-295 CNS) was 229 nM. It also gave a TGI (SF-295 CNS) of 3150 nM, a GI50 (SF-539 CNS) of 645 nM and a TGI (SF-539 CNS) of 6830 nM. It also gave a GI50 (SK-MEL-2 melanoma) of 1210 nM, a TGI (SK-MEL-2 melanoma) of 6140 nM and a GI50 (SK-MEL-28 melanoma) of 719 nM. It also gave a TGI (SK-MEL-28 melanoma) of 12100 nM, a GI50 (SK-MEL-5 melanoma) of 1090 nM and a TGI (SK-MEL-5 melanoma) of 2770 nM. The GI50 (SK-OV-3 ovarian) was 538 nM, the TGI (SK-OV-3 ovarian) was 5020 nM and the GI50 (SN12C renal) was 583 nM. The TGI (SN12C renal) was 11800 nM, the GI50 (SNB-19 CNS) was 812 nM and the TGI (SNB-19 CNS) was 14600 nM. For the same compound, the GI50 (SNB-75 CNS) was 2930 nM, the TGI (SNB-75 CNS) was 18000 nM and the GI50 (SR leukemia) was 160 nM. It also gave a GI50 (SW-620 colon) of 638 nM, a TGI (SW-620 colon) of 12600 nM and a GI50 (T-47D breast) of 1720 nM. It also gave a TGI (T-47D breast) of 9440 nM, a GI50 (TK-10 renal) of 158 nM and a TGI (TK-10 renal) of 2320 nM. It also gave a GI50 (U251 CNS) of 370 nM, a TGI (U251 CNS) of 11700 nM and a GI50 (UACC-257 melanoma) of 2150 nM. The TGI (UACC-257 melanoma) was 7100 nM, the GI50 (UACC-62 melanoma) was 444 nM and the TGI (UACC-62 melanoma) was 2710 nM. For the same compound, the GI50 (UO-31 renal) was 96.4 nM and the TGI (UO-31 renal) was 1510 nM.
